In patent publication US9833497B2, “Human originated EGF domain proteins and use of the same” (CHENGDU SOURCEBIO LIMITED-LIABILITY COMPANY, priority 2013, dated 2017):

Tests used:
Type in all cases: cell-based
Enterobacter cloacae = assay: MIC against Gram-negative bacteria: Enterobacter cloacae
In short: (§1)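 Read-out is absence of bacterial growth, with MIC set at the lowest recombinant protein concentration achieving it. Bacteria, pre-grown in LB to McFarland 0.5 and resuspended, were exposed at 5×10^5 CFU/mL to two-fold diluted human EGF domain proteins in triplicate at 37° C, 175 rpm.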

Moraxella catarrhalis = assay: MIC against Gram-negative bacteria: Moraxella catarrhalis
In short: as §1

Citrobacter diversus = assay: MIC against Gram-negative bacteria: Citrobacter diversus
In short: as §1

Klebsiella pneumonia = assay: MIC against Gram-negative bacteria: Klebsiella pneumonia
In short: as §1

E. coli BL21 = assay: MIC against Gram-negative bacteria: E. coli BL21; settings: for MIC / MIC (μg/mL) E. coli BL21: E. coli BL21
In short: as §1

Serratia marcescens = assay: MIC against Gram-negative bacteria: Serratia marcescens
In short: as §1

Aeromonas hydrophila = assay: MIC against Gram-negative bacteria: Aeromonas hydrophila
In short: as §1

Proteus mirabilis = assay: MIC against Gram-negative bacteria: Proteus mirabilis
In short: as §1

Pseudomonas aeruginosa = assay: MIC against Gram-negative bacteria: Pseudomonas aeruginosa
In short: as §1

E. coli DH5α = assay: Antibacterial activity: MIC and growth curve against E. coli DH5α in 96-well plate; settings: minimal inhibitory concentration against E. coli DH5α; 96-well plate, 5×10^5 CFU/mL, 37° C., judged after 8 h
In short: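 Log-phase bacteria (OD600 ~0.5) resuspended in LB at 5×10^5 CFU/mL, exposed to recombinant protein at 50, 25, 12.5 μg/mL final in triplicate, 37 °C shaking at 175 rpm. OD600 read every 30 min; MIC is lowest concentration showing no growth.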

Proteus vulgaris = assay: MIC against Gram-negative bacteria: Proteus vulgaris
In short: as §1

[1] = E. cloacae, 10 h cultivation at 37° C., 5×10^5 CFU/mL
[2] = M. catarrhalis, 10 h cultivation at 37° C., 5×10^5 CFU/mL
[3] = C. diversus, 10 h cultivation at 37° C., 5×10^5 CFU/mL
[4] = K. pneumonia, 10 h cultivation at 37° C., 5×10^5 CFU/mL
[5] = 10 h cultivation at 37° C., 5×10^5 CFU/mL
[6] = S. marcescens, 10 h cultivation at 37° C., 5×10^5 CFU/mL
[7] = A. hydrophila, 10 h cultivation at 37° C., 5×10^5 CFU/mL
[8] = P. mirabilis, 10 h cultivation at 37° C., 5×10^5 CFU/mL
[9] = P. aeruginosa, 10 h cultivation at 37° C., 5×10^5 CFU/mL
[10] = P. vulgaris, 10 h cultivation at 37° C., 5×10^5 CFU/mL
[11] = 96-well plate, 5×10^5 CFU/mL, 37° C., 10 h

PRT968 (LEDPCHSGPCAGRGVCQSSVVAGTARFSCRCPRGFRGPDCS; listed as Homo sapiens)
MIC (Enterobacter cloacae; E. cloacae, 10 h cultivation at 37° C.): 25 µg/mL | MIC (Moraxella catarrhalis; M. catarrhalis, 10 h cultivation at 37° C.): 25 µg/mL | MIC (Citrobacter diversus; C. diversus, 10 h cultivation at 37° C.): 12.5 µg/mL | MIC (Klebsiella pneumonia; K. pneumonia, 10 h cultivation at 37° C.): 12.5 µg/mL | MIC (E. coli BL21; 10 h cultivation at 37° C.): 12.5 µg/mL | MIC (Serratia marcescens; S. marcescens, 10 h cultivation at 37° C.): 12.5 µg/mL | MIC (Aeromonas hydrophila; A. hydrophila, 10 h cultivation at 37° C.): 25 µg/mL | MIC (Proteus mirabilis; P. mirabilis, 10 h cultivation at 37° C.): 50 µg/mL | MIC (Pseudomonas aeruginosa; P. aeruginosa, 10 h cultivation at 37° C.): 25 µg/mL | MIC (E. coli DH5α): 25 µg/mL | MIC (Proteus vulgaris; P. vulgaris, 10 h cultivation at 37° C.): 25 µg/mL

PRT762 (ALDPCVLGTHQCQHVCISDGEGKHHCECSQGYTLNADKKTCS; listed as Homo sapiens)
MIC (μg/mL) E. cloacae (Enterobacter cloacae; [1]): 50 µg/mL | MIC (μg/mL) M. catarrhalis (Moraxella catarrhalis; [2]): 12.5 µg/mL | MIC (μg/mL) C. diversus (Citrobacter diversus; [3]): 50 µg/mL | MIC (μg/mL) K. pneumonia (Klebsiella pneumonia; [4]): 12.5 µg/mL | MIC (μg/mL) E. coli BL21 (E. coli BL21; [5]): 12.5 µg/mL | MIC (μg/mL) S. marcescens (Serratia marcescens; [6]): 12.5 µg/mL | MIC (μg/mL) A. hydrophila (Aeromonas hydrophila; [7]): 12.5 µg/mL | MIC (μg/mL) P. mirabilis (Proteus mirabilis; [8]): 50 µg/mL | MIC (μg/mL) P. aeruginosa (Pseudomonas aeruginosa; [9]): 50 µg/mL | MIC (E. coli DH5α): 50 µg/mL | MIC (μg/mL) P. vulgaris (Proteus vulgaris; [10]): 25 µg/mL

PRT263 (CSKNNGGCSPYATCKSTGDGQRTCTCDTAHTVGDGLTC; listed as Homo sapiens)
MIC (μg/mL) E. cloacae (Enterobacter cloacae; [1]): 12.5 µg/mL | MIC (μg/mL) M. catarrhalis (Moraxella catarrhalis; [2]): 12.5 µg/mL | MIC (μg/mL) C. diversus (Citrobacter diversus; [3]): 12.5 µg/mL | MIC (μg/mL) K. pneumonia (Klebsiella pneumonia; [4]): 25 µg/mL | MIC (μg/mL) E. coli BL21 (E. coli BL21; [5]): 25 µg/mL | MIC (μg/mL) S. marcescens (Serratia marcescens; [6]): 50 µg/mL | MIC (μg/mL) A. hydrophila (Aeromonas hydrophila; [7]): 25 µg/mL | MIC (μg/mL) P. mirabilis (Proteus mirabilis; [8]): 12.5 µg/mL | MIC (μg/mL) P. aeruginosa (Pseudomonas aeruginosa; [9]): 12.5 µg/mL | MIC (E. coli DH5α): 25 µg/mL | MIC (μg/mL) P. vulgaris (Proteus vulgaris; [10]): 12.5 µg/mL

PRT420 (DIDECVTGIHNCSINETCFNIQGGFRCLAFECPENYRRSAATLQQEKTDTVRCI; listed as Homo sapiens)
MIC (Enterobacter cloacae; [1]): 50 µg/mL | MIC (Moraxella catarrhalis; [2]): 12.5 µg/mL | MIC (Citrobacter diversus; [3]): 50 µg/mL | MIC (Klebsiella pneumonia; [4]): 25 µg/mL | MIC (E. coli BL21; [5]): 25 µg/mL | MIC (Serratia marcescens; [6]): 50 µg/mL | MIC (Aeromonas hydrophila; [7]): 12.5 µg/mL | MIC (Proteus mirabilis; [8]): 50 µg/mL | MIC (Pseudomonas aeruginosa; [9]): 12.5 µg/mL | MIC (E. coli DH5α): 50 µg/mL | MIC (Proteus vulgaris; [10]): 100 µg/mL

PRT416 (DVDECAPPAEPCGKGHRCVNSPGSFRCECKTGYYFDGISRMCV; listed as Homo sapiens)
MIC (Enterobacter cloacae; [1]): 50 µg/mL | MIC (Moraxella catarrhalis; [2]): 25 µg/mL | MIC (Citrobacter diversus; [3]): 12.5 µg/mL | MIC (Klebsiella pneumonia; [4]): 25 µg/mL | MIC (E. coli BL21; [5]): 25 µg/mL | MIC (Serratia marcescens; [6]): 12.5 µg/mL | MIC (Aeromonas hydrophila; [7]): 25 µg/mL | MIC (Proteus mirabilis; [8]): 50 µg/mL | MIC (Pseudomonas aeruginosa; [9]): 12.5 µg/mL | MIC (E. coli DH5α): 50 µg/mL | MIC (Proteus vulgaris; [10]): 25 µg/mL

PRT109 (ASQACRTNPCLHGGRCLEVEGHRLCHCPVGYTGAFCD; listed as Homo sapiens)
MIC (μg/mL) E. cloacae (Enterobacter cloacae; Enterobacter cloacae, 96-well plate, 5×10^5 CFU/mL, 37° C., 10 h): 12.5 µg/mL | MIC (μg/mL) M. catarrhalis (Moraxella catarrhalis; Moraxella catarrhalis, 96-well plate, 5×10^5 CFU/mL, 37° C., 10 h): 25 µg/mL | MIC (μg/mL) C. diversus (Citrobacter diversus; Citrobacter diversus, 96-well plate, 5×10^5 CFU/mL, 37° C., 10 h): 12.5 µg/mL | MIC (μg/mL) K. pneumonia (Klebsiella pneumonia; Klebsiella pneumonia, 96-well plate, 5×10^5 CFU/mL, 37° C., 10 h): 12.5 µg/mL | MIC (μg/mL) E. coli BL21 (E. coli BL21; [11]): 12.5 µg/mL | MIC (μg/mL) S. marcescens (Serratia marcescens; Serratia marcescens, 96-well plate, 5×10^5 CFU/mL, 37° C., 10 h): 50 µg/mL | MIC (μg/mL) A. hydrophila (Aeromonas hydrophila; Aeromonas hydrophila, 96-well plate, 5×10^5 CFU/mL, 37° C., 10 h): 12.5 µg/mL | MIC (μg/mL) P. mirabilis (Proteus mirabilis; Proteus mirabilis, 96-well plate, 5×10^5 CFU/mL, 37° C., 10 h): 12.5 µg/mL | MIC (μg/mL) P. aeruginosa (Pseudomonas aeruginosa; Pseudomonas aeruginosa, 96-well plate, 5×10^5 CFU/mL, 37° C., 10 h): 12.5 µg/mL | MIC (E. coli DH5α): 12.5 µg/mL | MIC (μg/mL) P. vulgaris (Proteus vulgaris; Proteus vulgaris, 96-well plate, 5×10^5 CFU/mL, 37° C., 10 h): 25 µg/mL

PRT478 (ATQYCSRAQCHGHGRCVRRNPSASTFLHLSTNSFRLVPGHAPGEPQLRPVGELSWADIDH; listed as Homo sapiens)
MIC against E. cloacae (Enterobacter cloacae; [11]): 50 µg/mL | MIC against M. catarrhalis (Moraxella catarrhalis; [11]): 25 µg/mL | MIC against C. diversus (Citrobacter diversus; [11]): 100 µg/mL | MIC against K. pneumonia (Klebsiella pneumonia; [11]): 25 µg/mL | MIC against E. coli BL21 (E. coli BL21; [11]): 25 µg/mL | MIC against S. marcescens (Serratia marcescens; [11]): 12.5 µg/mL | MIC against A. hydrophila (Aeromonas hydrophila; [11]): 25 µg/mL | MIC against P. mirabilis (Proteus mirabilis; [11]): 50 µg/mL | MIC against P. aeruginosa (Pseudomonas aeruginosa; [11]): 12.5 µg/mL | MIC (E. coli DH5α): 50 µg/mL | MIC against P. vulgaris (Proteus vulgaris; [11]): 25 µg/mL
